Patent publication US20220323554A1, “POLYSACCHARIDE-PEPTIDE COMPLEX FOR LOWERING BLOOD SUGAR, BLOOD LIPID AND GLYCOSYLATED HEMOGLOBIN LEVELS, AND PREPARATION METHOD” (CHINA YUNHONG HOLDINGS CO., LTD., priority 2019, published 2022)
Counter-ions that a name gives are not always drawn.

Tests used:
diabetic animal model = experiment: Evaluation tests for lowering blood sugar (urine sugar, fasting blood sugar) in streptozotocin rats; type: in vivo; details: positive control group, metformin hydrochloride solution, intragastric once per day for 15 days
Experimental: Evaluation tests for lowering blood sugar were described below.
100 of healthy male rats were selected, numbered and fed adaptively in normal environment for 2 weeks, and free to eat and drink.
After adaptive feeding, the rats were randomly divided into 5 groups with 20 rats in each group. Only one group was selected as the blank control group, the rest groups were subjected to disposable intraperitoneal injection with 5% streptozotocin STZ solution for 200 mg/kg. If there were coma among those rats within 2 h, glucose sugar solution was fed until awake. Two days later, the fasting blood sugar was detected. The rat with a blood sugar of more than 10 was selected as a diabetic animal model.
The rats that were successfully modeled were randomly divided into model group, positive control group, low-dose group, medium-dose group and high-dose group according to blood sugar and body weight, with 20 rats in each group. The polysaccharide-peptide composites prepared in Examples 1-3 were diluted with water into intragastric solutions, which were fed to the low-dose group for 1.0 g/kg, the medium-dose group for 2.0 g/kg and the high-dose group for 3.0 g/kg, respectively. […]
During the experiment, rats of each group were […] every day for 15 consecutive days. […] At the end of the experiment, the final blood sugar content was recorded.

diabetic rat model = experiment: Evaluation tests for lowering glycated hemoglobin (HbA1c) and blood lipid in diabetic rats (high-lipid emulsion + streptozotocin); type: in vivo, Sprague-Dawley (SD) rats; details: positive control group, metformin hydrochloride solution, intragastric once per day for 8 weeks
Experimental: Evaluation tests for lowering glycated hemoglobin (HbA1c) were described below.
Healthy male Sprague-Dawley (SD) rats with a body weight of 185-225 g were selected and fed adaptively for one week. After adaptive feeding, the SD rats were randomly divided into six groups each for 20 rats. One of the six groups was selected as a blank control group, and fed with ordinary feed. The rest five groups were subjected to intragastric administration with high-lipid emulsion for 10 mL/kg per day for 1 month. After the last feeding, rats were fasted for 12 h expect for water. The rats fed with high-lipid emulsion were subjected to disposable intraperitoneal injection with streptozotocin STZ solution for 25 mg/kg to establish a diabetic rat model. After streptozotocin injection for 72 h, the rats were fasted for 12 h expect for water and was taken blood samples from the tail to detect fasting blood sugar. The rat with a fasting blood glucose>10.0 mmol/L was considered as a successful model. The blank control group was intraperitoneally injected with citric acid-sodium citrate buffer solution.
The rats that were successfully modeled were randomly divided into model group, positive control group, low-dose group, medium-dose group and high-dose group according to blood sugar and body weight, with 20 rats in each group. […]

high-lipid model rats = experiment: Evaluation tests for lowering blood lipid (TC, TG) in rats given high lipid diet; type: in vivo; details: positive control group, simvastatin solution 50 mg/kg bw d, intragastric
Source text: Evaluation tests for lowering blood lipid were described below. 60 of healthy male rats were selected, numbered and fed adaptively in normal environment for 2 weeks, and free to eat and drink. After the adaptive feeding, the rats were randomly divided into 6 groups with 10 rats in each group, consisting of a blank control group, a high-lipid model group, a positive treatment group, a high-dose group, a medium-dose group and a low-dose group. Except the blank control group, the other groups were given high lipid diet. The polysaccharide-peptide composites prepared in this application and simvastatin were respectively diluted. The positive control group was given simvastatin solution by intragastric administration for 50 mg/kg bw d, and the high, medium and low-dose groups were given polysaccharide-peptide solutions for 100 mg/kg bw d, 50 mg/kg bw d and 25 mg/kg bw d, respectively. Other groups were intragastric with corresponding volume of distilled water. The treatment period lasted for 4 weeks.

CN(C)C(=N)N=C(N)N [metformin hydrochloride]
Content of urine sugar (diabetic animal model; model group 1.74 ± 0.56): 1.44 ± 0.23 mmol/L
Content of fasting blood sugar (diabetic animal model; model group 14.86 ± 2.38): 8.55 ± 1.37 mmol/L
Content of blood lipid (diabetic rat model; model group 3.29 ± 0.58): 2.52 ± 0.24 mmol/L
Content of HbA1c (diabetic rat model; model group 50.78 ± 3.76): 35.14 ± 1.25 ng/mL

CCC(C)(C)C(=O)O[C@H]1C[C@@H](C)C=C2C=C[C@H](C)[C@H](CC[C@@H]3C[C@@H](O)CC(=O)O3)[C@H]21 [simvastatin]
Content of TG (high-lipid model rats; model group 0.57 ± 0.18): 0.32 ± 0.14 mmol/L
Content of TC (high-lipid model rats; model group 3.41 ± 0.58): 2.59 ± 0.24 mmol/L
